The record followed here is patent US20040116336A1, “Peptide derivatives” (priority 2002, published 2004).

Each structure is given as a SMILES string. Starred links: 1 amine or outer side, 2 acyl side, 3 side chain; linkers in the order of their positions; H or OH if unused. Non-standard residues stand in square brackets, D forms with d. Residues, ends and D or L forms follow the SMILES beside them. *: point of attachment. Phe(4-Cl) = N[C@@H](Cc1ccc(Cl)cc1)C(=O)O; Adipoyl = O=C(CCCCC(=O)[*:2])[*:1]; Cha = N[C@@H](CC1CCCCC1)C(=O)O; pGlu = O=C1CC[C@@H](C(=O)O)N1; Morpholide = C1CN(*)CCO1; NMeA = CN[C@@H](C)C(=O)O; Dap = NC[C@H](N)C(=O)O

Assay [1] concerns the target T1, APJ (Homo sapiens, UniProt P35414).
T1 construct: expressed in transfected cells; host or cells: CHO (CHO-A10; clone 6 for the cAMP assay)
T1 sequence (P35414 1-380): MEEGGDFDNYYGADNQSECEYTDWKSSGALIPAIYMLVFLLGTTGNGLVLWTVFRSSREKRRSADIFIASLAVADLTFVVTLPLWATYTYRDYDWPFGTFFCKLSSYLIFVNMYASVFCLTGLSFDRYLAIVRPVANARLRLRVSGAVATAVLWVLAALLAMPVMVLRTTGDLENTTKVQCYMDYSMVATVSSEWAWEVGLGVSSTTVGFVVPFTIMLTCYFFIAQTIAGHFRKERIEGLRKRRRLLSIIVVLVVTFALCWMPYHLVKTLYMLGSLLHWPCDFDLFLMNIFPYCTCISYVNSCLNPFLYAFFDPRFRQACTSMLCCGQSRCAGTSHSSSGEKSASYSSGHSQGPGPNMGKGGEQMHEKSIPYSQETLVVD
The assay is described as follows: Receptor binding assay-1 (125I-labeled compound in Reference Example 1, CHO-A10 membrane fraction). The note with it: 125I-labeled compound in Reference Example 1 at 100 pM. How it is done:
(§1) This product was mixed with an equal volume of an assay buffer (50 mM Tris-HCl/pH 7.5, 5 mM EDTA, 0.5 mM PMSF, 20 μg/ml leupeptin, 0.1 μg/ml pepstatin A, 4 μg/ml E-64 (Peptide Research Laboratory, Co.), 0.1% bovine serum albumin) and stored at −30° C. before use.
(§2) CHO-A10 cells were cultured, recovered with PBS containing 5 mM EDTA from a culture vessel, and suspended in the above-mentioned assay buffer not containing bovine serum albumin. The cells were homogenized 3 times at 12,000 rpm for 15 seconds by a Polytron homogenizer (manufactured by Kinematica Inc.) and then centrifuged (1000×g, 4° C., 10 minutes), and the supernatant was recovered. The precipitates were subjected again to the same procedure as above, and the respective supernatants were combined and centrifuged at 100,000×g, 4° C. for 1 hour, to recover precipitates (membrane fraction). The membrane fraction was suspended again in a small amount of the buffer, homogenized with a Teflon homogenizer and stored at −80° C. before use.
(§3) Binding assay was carried out under the following conditions. […] Measurement of non-specific binding was carried out using a well containing 1 μM unlabeled compound in place of the test sample. After the incubation was finished, a cell harvester (Packard) adapted to 96 wells and a filter unit (GF/C, Packard) were used for separation thereby capturing the membrane fraction on the filter. After the filter was sufficiently dried, Microcinti 0 (Packard) was added thereto, and using Top Count (Packard), the amount of the labeled material captured together with the membrane fraction on the filter was measured.

In assay [2] the target is T1, APJ. The assay is described as follows: Inhibitory activity on forskolin-stimulated cAMP production in CHO-A10 clone 6 cells. Type of assay: cell-based. The note with it: read-out: EC50. How it is done:
Measurement of an Inhibitory Activity on Forskolin-Stimulated cAMP Production
Hanks' balanced salt solution (HBSS) containing 0.2 mM 3-isobutyl-1-methylxanthine (IBMX) and 0.05% bovine serum albumin was prepared as an assay buffer, and each well was washed twice with 500 μl assay buffer and pre-incubated at 37° C. for 30 minutes. Further, each well was washed once with 500 μl assay buffer, and a sample dissolved in the assay buffer containing 1 μM forskolin was added at a volume of 500 μl/well and incubated at 37° C. for 30 minutes. Wells incubated with the assay buffer not containing forskolin were prepared in the same manner in order to determine the basal level of cellular cAMP production, while wells incubated with the assay buffer containing forskolin were also prepared in order to determine the maximum level of cAMP production stimulated with forskolin. After incubation was finished, each well was washed once with 500 μl assay buffer, and 500 μl lysis buffer 1B attached to a cAMP EIA system from Amersham was added to each well, to extract cAMP. According to the protocol of the kit, 100 μl of each extract was used to determine the level of cAMP. For the inhibitory activity of the sample on cAMP production, the difference (inhibited cAMP production) between the maximum level and the level of cAMP in the sample-containing wells was determined, and the inhibitory activity was expressed as percentage relative to the increased level of cAMP production stimulated with forskolin (that is, the difference between the maximum level and basal level), and from this dose-reaction curve, the EC50 was determined.

For assay [3], the target named is T1, APJ. In words: Receptor binding assay-2 (compound in Reference Example 2 used). The note with it: compound in Reference Example 2 used as ligand; read-out: IC50. How it is done: as §1, §2, §3

Take `CC(C)C[C@H](NC(=O)[C@H](CCCNC(=N)N)NC(=O)[C@@H]1CCCN1C(=O)[C@H](CCCNC(=N)N)NC(=O)[C@H](CCC(N)=O)NC(=O)[C@H](CCCNC(=N)N)NC(=O)[C@@H](N)CCCNC(=N)N)C(=O)N[C@@H](CO)C(=O)N[C@@H](C)C(=O)N[C@@H](CCCNC(=N)N)C(=O)NCC(=O)N1CCC[C@H]1C(=O)N[C@@H](CC1CCCCC1)C(=O)O` [Compound in Ex. 6]: the IC50 on APJ [1] (room temperature […]) is 1.4 nM; on APJ [3] it was 0.046 nM. Also, on APJ [2], the EC50 came to 0.55 nM.

For `CC(C)C[C@H](NC(=O)[C@H](CCCNC(=N)N)NC(=O)[C@@H]1CCCN1C(=O)[C@@H](N)CCCNC(=N)N)C(=O)N[C@@H](CO)C(=O)N[C@@H](Cc1c[nH]cn1)C(=O)N[C@@H](CCCCN)C(=O)NCC(=O)N1CCC[C@H]1C(=O)N[C@@H](CC1CCCCC1)C(=O)N1CCC[C@H]1C(=O)N[C@@H](Cc1ccc(Cl)cc1)C(=O)O` [Compound in Ex. 7], the figures for the IC50 on APJ [1] (room temperature […]) and on APJ [3] were 1.4 nM and 0.12 nM, respectively. Further, the EC50 on APJ [2] is 0.41 nM.

With `CSCC[C@H](NC(=O)[C@@H]1CCCN1C(=O)CNC(=O)[C@H](CCCCN)NC(=O)[C@H](Cc1c[nH]cn1)NC(=O)[C@H](CO)NC(=O)[C@H](CC(C)C)NC(=O)[C@H](CCCNC(=N)N)NC(=O)[C@@H]1CCCN1C(=O)[C@@H](N)CCCNC(=N)N)C(=O)N1CCC[C@H]1C(=O)N[C@@H](Cc1ccc(Cl)cc1)C(=O)O` [Compound in Ex. 8], the IC50 was determined as 13 nM on APJ [1] (room temperature 1.5 hours) and 0.039 nM on APJ [3]. In addition, at APJ [2], the EC50 turned out to be 0.34 nM.

As to `CSCC[C@H](NC(=O)[C@@H]1CCCN1C(=O)CNC(=O)[C@H](CCCCN)NC(=O)[C@H](Cc1c[nH]cn1)NC(=O)[C@H](CO)NC(=O)[C@H](CC(C)C)NC(=O)[C@H](CCCNC(=N)N)NC(=O)[C@@H]1CCCN1C(=O)[C@H](CCCNC(=N)N)NC(=O)[C@H](CCCCN)NC(=O)[C@H](CCCNC(=N)N)NC(=O)[C@@H](N)CCCNC(=N)N)C(=O)N1CCC[C@H]1C(=O)N[C@@H](Cc1ccccc1)C(=O)O` [Compound in Ex. 23], the figures for the IC50 on APJ [1] (room temperature […]) and at APJ [3] were 9.2 nM and 0.09 nM, respectively. For the same compound, the EC50 at APJ [2] turned out to be 0.31 nM.

For `CSCC[C@H](NC(=O)[C@@H]1CCCN1C(=O)CNC(=O)[C@H](CCCCN)NC(=O)[C@H](Cc1c[nH]cn1)NC(=O)[C@H](Cc1ccccc1)NC(=O)[C@H](CC(C)C)NC(=O)[C@H](CCCNC(=N)N)NC(=O)[C@@H]1CCCN1C(=O)[C@@H](N)CCCNC(=N)N)C(=O)N1CCC[C@H]1C(=O)N[C@@H](Cc1ccc(Cl)cc1)C(=O)O` [Compound in Ex. 16] (H-RPRLFHKGPMP[Phe(4-Cl)]-OH; N-terminus and C-terminus assumed), the IC50 was 8 nM on APJ [1] (room temperature […]) and 0.066 nM at APJ [3]. At APJ [2], the EC50 came out at 0.38 nM.

Regarding `CSCC[C@H](NC(=O)[C@@H]1CCCN1C(=O)CNC(=O)[C@H](CCCNC(=N)N)NC(=O)[C@H](C)NC(=O)[C@H](CO)NC(=O)[C@H](CC(C)C)NC(=O)[C@H](CCCNC(=N)N)NC(=O)[C@@H]1CCCN1C(=O)[C@@H](N)CCCNC(=N)N)C(=O)N1CCC[C@H]1C(=O)N[C@@H](Cc1ccc(Cl)cc1)C(=O)O` [Compound in Ex. 3] (H-RPRLSARGPMP[Phe(4-Cl)]-OH; N-terminus and C-terminus assumed), the values for the IC50 at APJ [1] (room temperature […]) and on APJ [3] were 0.91 nM and 0.036 nM, respectively. On APJ [2], the half-maximal effective concentration (EC50) is 0.32 nM.

`CC(C)C[C@H](NC(=O)[C@H](CCCNC(=N)N)NC(=O)[C@@H]1CCCN1C(=O)[C@@H](N)CCCNC(=N)N)C(=O)N[C@@H](Cc1ccccc1)C(=O)N[C@@H](C)C(=O)N[C@@H](CCCNC(=N)N)C(=O)NCC(=O)N1CCC[C@H]1C(=O)N[C@@H](CC1CCCCC1)C(=O)N1CCC[C@H]1C(=O)N[C@@H](Cc1ccc(Cl)cc1)C(=O)O` [Compound in Ex. 12] (H-RPRLFARGP[Cha]P[Phe(4-Cl)]-OH): the IC50 on APJ [1] (room temperature […]) stood at 2.3 nM; on APJ [3] it was 0.38 nM. The 50% effective concentration (EC50) at APJ [2] is 1.2 nM.

As to `CSCC[C@H](NC(=O)[C@@H]1CCCN1C(=O)CNC(=O)[C@H](CCCCN)NC(=O)[C@H](Cc1c[nH]cn1)NC(=O)[C@H](CO)NC(=O)[C@H](CC(C)C)NC(=O)[C@H](CCCNC(=N)N)NC(=O)[C@@H]1CCCN1C(=O)[C@H](CCCNC(=N)N)NC(=O)[C@H](CCCCNC(=O)[C@H](CCCNC(=N)N)NC(=O)[C@@H](N)CCCNC(=N)N)NC(=O)[C@H](CCCNC(=N)N)NC(=O)[C@@H](N)CCCNC(=N)N)C(=O)N1CCC[C@H]1C(=O)N[C@@H](Cc1ccccc1)C(=O)O` [Compound in Ex. 21], the IC50 at APJ [1] (room temperature […]) was 2.9 nM; on APJ [3], 0.84 nM. For the same compound, the EC50 at APJ [2] was 0.57 nM.

As for `CC(C)C[C@H](NC(=O)[C@H](CCCNC(=N)N)NC(=O)[C@@H]1CCCN1C(=O)[C@@H](N)CCCNC(=N)N)C(=O)N[C@@H](CO)C(=O)N[C@@H](CNC(=O)CCCCC(=O)O)C(=O)N[C@@H](CCCNC(=N)N)C(=O)NCC(=O)N1CCC[C@H]1C(=O)N[C@@H](CC1CCCCC1)C(=O)N1CCC[C@H]1C(=O)N[C@@H](Cc1ccc(Cl)cc1)C(=O)O` [Compound in Ex. 68, Arg-Pro-Arg-Leu-Ser-Dap(Adi)-Arg-Gly-Pro-Cha-Pro-Phe(Cl)] (H-RPRLS[Dap](Adipoyl)RGP[Cha]P[Phe(4-Cl)]-OH; N-terminus and C-terminus assumed), the EC50 on APJ [2] is 0.42 nM. Also, the IC50 at APJ [3] came out at 0.13 nM.

As to `CSCC[C@H](NC(=O)[C@@H]1CCCN1C(=O)CNC(=O)[C@H](CCCCN)NC(=O)[C@H](CC(C)C)NC(=O)[C@H](CO)NC(=O)[C@H](CC(C)C)NC(=O)[C@H](CCCNC(=N)N)NC(=O)[C@@H]1CCCN1C(=O)[C@H](CCCNC(=N)N)NC(=O)[C@@H]1CCC(=O)N1)C(=O)N1CCC[C@H]1C(=O)N[C@@H](Cc1ccccc1)C(=O)O` [Compound in Ex. 38], the EC50 on APJ [2] amounted to 0.16 nM. In addition, at APJ [3], the IC50 came out at 0.59 nM.

`CSCC[C@H](NC(=O)[C@@H]1CCCN1C(=O)CNC(=O)[C@H](CCCNC(=N)N)NC(=O)[C@H](CCCNC(=N)N)NC(=O)[C@H](Cc1ccccc1)NC(=O)[C@H](CC(C)C)NC(=O)[C@H](CCCNC(=N)N)NC(=O)[C@@H]1CCCN1C(=O)[C@H](CCCNC(=N)N)NC(=O)[C@@H]1CCC(=O)N1)C(=O)N1CCC[C@H]1C(=O)N[C@@H](Cc1ccccc1)C(=O)O` [Compound in Ex. 42] ([pGlu]RPRLFRRGPMPF-OH): at APJ [2], the EC50 came out at 0.15 nM. Further, on APJ [3], the IC50 came out at 0.81 nM.

`CC(C)C[C@H](NC(=O)[C@H](CCCNC(=N)N)NC(=O)[C@@H]1CCCN1C(=O)[C@H](CCCNC(=N)N)NC(=O)[C@H](CCC(N)=O)NC(=O)[C@H](CCCNC(=N)N)NC(=O)[C@@H](N)CCCNC(=N)N)C(=O)N[C@@H](CO)C(=O)N[C@@H](C)C(=O)N[C@@H](CCCNC(=N)N)C(=O)NCC(=O)N1CCOCC1` [Compound in Ex. 52] (H-RRQRPRLSARG-Morpholide; N-terminus assumed): the EC50 on APJ [2] came to 1.2 nM. Further, the IC50 at APJ [3] is 0.26 nM.

As to `CSCC[C@H](NC(=O)[C@H](C)N(C)C(=O)CNC(=O)[C@H](CCCNC(=N)N)NC(=O)[C@H](C)NC(=O)[C@H](CO)NC(=O)[C@H](CC(C)C)NC(=O)[C@H](CCCNC(=N)N)NC(=O)[C@@H]1CCCN1C(=O)[C@@H](N)CCCNC(=N)N)C(=O)N1CCC[C@H]1C(=O)N[C@@H](Cc1ccc(Cl)cc1)C(=O)O` [Compound in Ex. 55] (H-RPRLSARG[NMeA]MP[Phe(4-Cl)]-OH; N-terminus and C-terminus assumed), the EC50 at APJ [2] was determined as 0.27 nM. Moreover, the IC50 at APJ [3] was determined as 0.09 nM.

One may read the IC50 as the concentration that gives 50% inhibition. One may read the EC50 as the concentration giving half of the maximal effect.
